Laboratory results taken from patent publication US20240109917A1 (ACTELION PHARMACEUTICALS LTD, priority 2020, published 2024).
Read-outs that look alike come from different tables or passages of the source.

How the values were obtained:
PDGFRβ = PDGFRβ (Rattus norvegicus (Rat), UniProt Q05030); assay: PDGFRβ Cellular Assay (PDGFRb P-Y751 HTRF in A10 cells stimulated with PDGF-BB); assay type: cell-based
In short: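 Phospho-Y751 PDGFRβ was measured by HTRF in lysates of A10 rat cells. Cells received compound for 3 hours before PDGF-BB stimulation (100 ng/mL working stock).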

[1] = target: His6-TEV-PDGFRβ (557-1016) (Homo sapiens (Human), UniProt P09619); assay: PDGFRβ HTRF Assay; assay type: biochemical; conditions: read-out: PDGFR HTRF IC50
In short: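 HTRF KinEASE-TK readout (665/620 nm ratio) of TK-biotin substrate phosphorylation by His-tagged PDGFRβ kinase domain. Enzyme and inhibitor preincubated 30 min, then ATP/substrate added for 3 h at room temperature before 60 min EDTA quench/detection.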

Sequence of PDGFRβ (Q05030 32-1097): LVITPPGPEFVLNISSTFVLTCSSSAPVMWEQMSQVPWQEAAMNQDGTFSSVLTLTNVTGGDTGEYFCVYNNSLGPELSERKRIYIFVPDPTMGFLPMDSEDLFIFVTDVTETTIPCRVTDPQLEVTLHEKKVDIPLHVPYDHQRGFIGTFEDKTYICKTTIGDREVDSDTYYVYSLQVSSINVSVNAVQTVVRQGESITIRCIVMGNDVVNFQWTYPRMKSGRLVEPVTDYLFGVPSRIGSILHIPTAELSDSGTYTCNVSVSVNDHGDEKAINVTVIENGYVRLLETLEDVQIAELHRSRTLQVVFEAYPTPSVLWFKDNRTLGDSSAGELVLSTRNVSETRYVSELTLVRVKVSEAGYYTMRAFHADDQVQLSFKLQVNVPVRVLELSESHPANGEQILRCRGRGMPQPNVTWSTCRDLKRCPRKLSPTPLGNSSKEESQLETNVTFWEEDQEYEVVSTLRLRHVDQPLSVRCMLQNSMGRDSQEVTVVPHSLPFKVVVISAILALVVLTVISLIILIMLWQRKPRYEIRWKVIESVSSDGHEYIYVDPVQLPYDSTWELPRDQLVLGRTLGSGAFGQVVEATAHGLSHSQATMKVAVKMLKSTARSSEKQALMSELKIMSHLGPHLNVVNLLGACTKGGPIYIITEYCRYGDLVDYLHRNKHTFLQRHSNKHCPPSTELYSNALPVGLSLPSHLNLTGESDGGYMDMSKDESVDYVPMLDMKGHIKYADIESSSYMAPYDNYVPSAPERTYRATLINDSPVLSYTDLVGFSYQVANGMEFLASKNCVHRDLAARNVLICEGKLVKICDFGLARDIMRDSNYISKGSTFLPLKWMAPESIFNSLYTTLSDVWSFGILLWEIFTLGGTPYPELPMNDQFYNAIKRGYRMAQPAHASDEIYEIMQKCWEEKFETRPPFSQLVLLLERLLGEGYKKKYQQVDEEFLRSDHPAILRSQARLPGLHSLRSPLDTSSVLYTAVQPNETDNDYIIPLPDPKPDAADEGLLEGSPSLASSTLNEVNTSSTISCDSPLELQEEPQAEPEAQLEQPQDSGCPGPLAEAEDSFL
Sequence of His6-TEV-PDGFRβ (557-1016) (P09619 557-1016): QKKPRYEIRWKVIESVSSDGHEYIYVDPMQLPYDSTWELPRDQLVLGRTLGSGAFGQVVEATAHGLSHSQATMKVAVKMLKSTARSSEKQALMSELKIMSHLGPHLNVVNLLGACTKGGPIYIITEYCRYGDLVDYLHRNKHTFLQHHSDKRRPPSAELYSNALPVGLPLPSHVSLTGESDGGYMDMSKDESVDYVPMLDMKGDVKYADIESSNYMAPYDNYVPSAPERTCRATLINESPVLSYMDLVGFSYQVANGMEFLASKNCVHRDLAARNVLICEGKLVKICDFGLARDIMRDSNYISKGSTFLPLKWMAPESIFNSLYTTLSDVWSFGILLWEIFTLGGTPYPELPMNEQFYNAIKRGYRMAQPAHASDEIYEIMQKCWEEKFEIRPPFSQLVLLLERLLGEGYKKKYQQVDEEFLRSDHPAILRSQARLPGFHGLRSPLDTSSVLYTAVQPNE

Structure (SMILES)	IC50 (PDGFRβ; read-out: PDGFR Cellular IC50) [nM]	IC50 [1] [nM]	IC50 (PDGFRβ; PDGFR Cellular IC50) [nM]
Cc1ncc(NC(=O)CN2CC(C)(C)C2)cc1NC(=O)c1cnn2cc(-c3cnn(C4CCS(=O)(=O)CC4)c3)sc12 [Example 280, N-(5-(2-(3,3-dimethylazetidin-1-yl)acetamido)-2-methylpyridin-3-yl)-2-(1-(1,1-dioxidotetrahydro-2H-thiopyran-4-yl)-1H-pyrazol-4-yl)pyrazolo[5,1-b]thiazole-7-carboxamide]	85.9	0.3	
Cc1ncc(NC(=O)CCN2CCCC2(C)C)cc1NC(=O)c1cnn2cc(-n3ncc4cccnc43)sc12 [Example 260, N-(5-(3-(2,2-dimethylpyrrolidin-1-yl)propanamido)-2-methylpyridin-3-yl)-2-(1H-pyrazolo[3,4-b]pyridin-1-yl)pyrazolo[5,1-b]thiazole-7-carboxamide]		0.3	3.1
Cc1ncc(NC(=O)CN2CC(C)(C)C2)cc1NC(=O)c1cnn2cc(-c3cnn(-c4cccnc4)c3)sc12 [Example 289, N-(5-(2-(3,3-dimethylazetidin-1-yl)acetamido)-2-methylpyridin-3-yl)-2-(1-(pyridin-3-yl)-1H-pyrazol-4-yl)pyrazolo[5,1-b]thiazole-7-carboxamide]	4.4	0.3	
COc1ncccc1-c1cn2ncc(C(=O)Nc3cc(NC(=O)CN4CCC5(CC5)C4)cnc3C)c2s1 [Example 324, N-(5-(2-(5-azaspiro[2.4]heptan-5-yl)acetamido)-2-methylpyridin-3-yl)-2-(2-methoxypyridin-3-yl)pyrazolo[5,1-b]thiazole-7-carboxamide]	1.1	0.1	
COc1ncccc1-c1cn2ncc(C(=O)Nc3cc(NC(=O)C[C@@H]4CCCN4C(C)C)cnc3C)c2s1 [Example 323, (S)—N-(5-(2-(1-isopropylpyrrolidin-2-yl)acetamido)-2-methylpyridin-3-yl)-2-(2-methoxypyridin-3-yl)pyrazolo[5,1-b]thiazole-7-carboxamide]	2.8	0.2	
Cc1ncc(NC(=O)CN(C)C2CCOCC2)cc1NC(=O)c1cnn2cc(-c3cnn(CC(N)=O)c3)sc12 [Example 300, 2-(1-(2-amino-2-oxoethyl)-1H-pyrazol-4-yl)-N-(2-methyl-5-(2-(methyl(tetrahydro-2H-pyran-4-yl)amino)acetamido)pyridin-3-yl)pyrazolo[5,1-b]thiazole-7-carboxamide]	1010	1.2	
Cc1ncc(NC(=O)CN2CCCC2(C)C)cc1NC(=O)c1cnn2cc(-n3ncc4cccnc43)sc12 [Example 259, N-(5-(2-(2,2-dimethylpyrrolidin-1-yl)acetamido)-2-methylpyridin-3-yl)-2-(1H-pyrazolo[3,4-b]pyridin-1-yl)pyrazolo[5,1-b]thiazole-7-carboxamide]	3.9	0.4	
CNC(=O)Cn1cc(-c2cn3ncc(C(=O)Nc4cc(NC(=O)CN5CC(C)(C)C5)cnc4C)c3s2)cn1 [Example 279, N-(5-(2-(3,3-dimethylazetidin-1-yl)acetamido)-2-methylpyridin-3-yl)-2-(1-(2-(methylamino)-2-oxoethyl)-1H-pyrazol-4-yl)pyrazolo[5,1-b]thiazole-7-carboxamide]	134	0.4	
Cc1ncc(NC(=O)CN2CC(C)(C)C2)cc1NC(=O)c1cnn2cc(-c3cn[nH]c3)sc12 [Example 271, N-(5-(2-(3,3-dimethylazetidin-1-yl)acetamido)-2-methylpyridin-3-yl)-2-(1H-pyrazol-4-yl)pyrazolo[5,1-b]thiazole-7-carboxamide]	10.3	0.2	
Cc1ncc(NC(=O)C2CCCCN2C(C)C)cc1NC(=O)c1cnn2cc(-c3cccnc3O)sc12 (centres unmarked) [Example 314, 2-(2-hydroxypyridin-3-yl)-N-(5-(1-isopropylpiperidine-2-carboxamido)-2-methylpyridin-3-yl)pyrazolo[5,1-b]thiazole-7-carboxamide]	548	2.5	
